From patent US20030109418A1, “Methods for identifying compounds for inhibition of neoplastic lesions, and pharmaceutical compositions containing such compounds” (priority 1999, published 2003)
pEC50, pIC50: −log10 of the molar value.

Assays:
[1] = test system: PDE4 purified from human colon HT-29 cultured tumor cells; assay: PDE4 inhibition assay; assay type: biochemical; conditions: HT-29 cell enzyme
[2] = test system: HT-29 colon adenocarcinoma cells; assay: Apoptosis by DNA fragmentation assay in HT-29; assay type: cell-based, human; conditions: qualitative activity profile; also: key: −: Not active; +: Slightly active; ++: Moderately active; +++: Strongly active; ++++: Highly active
[3] = test system: A-427, Lung; assay: Growth inhibition, SRB assay, A-427; assay type: cell-based
Text: (§1) A compound's ability to inhibit tumor cell growth can be measured using the HT-29 human colon carcinoma cell line obtained from ATCC. HT-29 cells have previously been characterized as a relevant colon tumor cell culture model (Fogh, J., and Trempe, G. In: Human Tumor Cells in Vitro, J. Fogh (eds.), Plenum Press, New York, pp. 115-159, 1975). HT-29 cells are maintained in RPMI media supplemented with 5% fetal bovine calf serum (Gemini Bioproducts, Inc., Carlsbad, Calif.) and 2 mm glutamine, and 1% antibiotic-antimycotic in a humidified atmosphere of 95% air and 5% CO2 at 37° C. Briefly, HT-29 cells are plated at a density of 500 cells/well in 96 well microtiter plates and incubated for 24 hours at 37° C. prior to the addition of compound. […] After six days in culture, the cells are fixed by the addition of cold trichloroacetic acid to a final concentration of 10% and protein levels are measured using the sulforhodamine B (SRB) colorimetric protein stain assay as previously described by Skehan, P., Storeng, R., Scudiero, D., Monks, A., McMahon, J., Vistica, D., Warren, J. T., Bokesch, H., Kenney, S., and Boyd, M. R., “New Colorimetric Assay For Anticancer-Drug Screening,” J. Natl. Cancer Inst. […]
(§2) To show the effectiveness of this screening method on various forms of neoplasia, compounds were tested on numerous cell lines. […] The IC50 values were determined by the SRB assay. […]

[4] = target: T1, purified cyclooxygenase (Type 1, COX-I) from ram seminal vesicles (Ovis aries, UniProt P05979); assay: COX inhibition assay, purified cyclooxygenase; assay type: biochemical
T1 construct: using purified cyclooxygenase from ram seminal vesicles as described previously; tissue Cayman Chemical, Ann Arbor, Mich; (named in the general protocol only); host or cells: ram seminal vesicles
T1 sequence (P05979 25-600): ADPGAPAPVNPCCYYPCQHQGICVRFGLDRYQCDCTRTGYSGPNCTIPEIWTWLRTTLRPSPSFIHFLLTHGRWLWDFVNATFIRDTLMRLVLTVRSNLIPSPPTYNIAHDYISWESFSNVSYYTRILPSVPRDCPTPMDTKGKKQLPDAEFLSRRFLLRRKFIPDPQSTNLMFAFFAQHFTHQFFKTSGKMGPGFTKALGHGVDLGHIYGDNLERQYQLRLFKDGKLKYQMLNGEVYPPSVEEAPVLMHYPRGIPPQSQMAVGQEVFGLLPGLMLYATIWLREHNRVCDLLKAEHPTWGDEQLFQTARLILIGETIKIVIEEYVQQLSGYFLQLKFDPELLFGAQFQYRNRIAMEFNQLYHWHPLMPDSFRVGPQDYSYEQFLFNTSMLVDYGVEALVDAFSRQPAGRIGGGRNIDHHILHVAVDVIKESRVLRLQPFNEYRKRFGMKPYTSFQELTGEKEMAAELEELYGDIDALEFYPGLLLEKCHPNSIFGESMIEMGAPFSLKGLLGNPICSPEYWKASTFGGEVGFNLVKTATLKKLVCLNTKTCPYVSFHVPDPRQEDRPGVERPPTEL

[5] = test system: cGMP PDE purified from human colon HT-29 cultured tumor cells; assay: cGMP PDE inhibition assay; assay type: biochemical
[6] = test system: Bronchial Epithelial Cells; assay: Growth inhibition, SRB assay, bronchial epithelial cells; assay type: cell-based
Text: as §1, §2

[7] = target: T2, PDE peak A (PDE5) from SW480 cells (Homo sapiens, UniProt O76074); assay: cGMP hydrolysis inhibition, PDE peak A from SW480; assay type: biochemical; conditions: cGMP hydrolysis, 0.25 μM 3H-cGMP
T2 construct: endogenous in cells; host or cells: SW480 colon cancer cells, DEAE-Trisacryl M fraction

[8] = test system: UACC375, Melanoma; assay: Growth inhibition, SRB assay, UACC375; assay type: cell-based
Text: as §1, §2

[9] = target: T3, cGMP binding sites of the GST-cGB-PDE5 protein (Homo sapiens, UniProt O76074); assay: cGMP binding assay with GST-cGB-PDE5 fusion protein; conditions: 3H-cGMP 2 μM
T3 construct: made in house; host or cells: E. coli BL21 (DE3)

[10] = test system: HCT116, Colon; assay: Growth inhibition, SRB assay, HCT116; assay type: cell-based
Text: as §1, §2

[11] = test system: premalignant lesions in mouse mammary gland organ culture; assay: Mammary gland organ culture model; assay type: cell-based; as to mammary gland organ culture: key: −: Not active; +: Slightly active; ++: Moderately active; +++: Strongly active; ++++: Highly active
Text: Test compounds identified by the above methods can be tested for antineoplastic activity by their ability to inhibit the incidence of pre-neoplastic lesions in a mammary gland organ culture system. This mouse mammary gland organ culture technique has been successfully used by other investigators to study the effects of known antineoplastic agents such as certain NSAIDs, retinoids, tamoxifen, selenium, and certain natural products, and is useful for validation of the screening method of the present invention.
For example, female BALB/c mice can be treated with a combination of estradiol and progesterone daily, in order to prime the glands to be responsive to hormones in vitro. The animals are sacrificed, and thoracic mammary glands are excised aseptically and incubated for ten days in growth media supplemented with insulin, prolactin, hydrocortisone, and aldosterone. DMBA (7,12-dimethylbenz(a)anthracene) is added to medium to induce the formation of premalignant lesions. Fully developed glands are then deprived of prolactin, hydrocortisone, and aldosterone, resulting in the regression of the glands but not the pre-malignant lesions.
The test compound is dissolved in DMSO and added to the culture media for the duration of the culture period. At the end of the culture period, the glands are fixed in 10% formalin, stained with alum carmine, and mounted on glass slides. The incidence of forming mammary lesions is the ratio of the glands with mammary lesions to […]. The incidence of mammary lesions in test compound treated glands is compared with that of the untreated glands.
The extent of the area occupied by the mammary lesions can be quantitated by projecting an image of the gland onto a digitation pad. The area covered by the gland is traced on the pad and considered as 100% of the area. The space covered by each of the non-regressed structures is also outlined on the digitization pad and quantitated by the computer.
Mammary gland organ culture experiment were performed as previously described (Mehta and Moon, Cancer Research, 46: 5832-5835, 1986). […] The data support the hypothesis that cyclooxygenase inhibition is not necessary for the anti-neoplastic properties of desired compounds.

[12] = test system: cGMP and cAMP levels in HT-29 cells; assay: Cyclic nucleotide levels in cultured cells by radioimmunoassay; assay type: cell-based, human; conditions: HT-29 cells treated 30 minutes

5-fluoro-2-methyl-1-(p-methylsulfinylbenzylidene)-3-indenylacetic acid [Sulindac sulfide]
pIC50 [1]: 4.39
Apoptosis [2]: +++
IC50 [3]: 90 µM
Cyclooxygenase inhibitory activity, % Inhibition at 100 μM ([4]; 100 μM): 97%
COX Inhibition ([4]; qualitative activity profile): ++++
cGMP PDE inhibitory activity, % Inhibition at 10 μM ([5]; 10 μM): 97%
PDE Inhibition ([5]; qualitative activity profile): +++
pIC50 ([5]; read-out: IC50 for inhibition of cGMP PDE, HT-29 cell enzyme): 4.77
IC50 [6]: 30 µM
pIC50 [7]: 4.30
IC50 [8]: 50 µM
competition with cGMP in binding of GST-cGB-PDE5 [9]: do not bind to the cGMP binding sites of PDE5
IC50 [10]: 45 µM
inhibition of the formation of premalignant lesions ([11]; mammary gland organ culture): inactive
Mammary Gland Organ Culture ([11]; qualitative activity profile): −
effect on cAMP levels [12]: unaffected
increase of cGMP levels [12]: greater than 50%
pEC50 ([12]; read-out: EC50 for increase of cGMP): 5.14
